Drawing on ChEMBL document CHEMBL1157980, “Guaianolides as immunomodulators. Synthesis and biological activities of dehydrocostus lactone, mokko lactone, eremanthin, and their derivatives” (J Nat Prod, 1999), this text covers IC50 for 15 compounds.

Some results are limits rather than exact numbers.

In one test the test system is A549. Nature of the test: Inhibition of IL-1-beta-induced ICAM1 expression in human A549 cells. It is filed as functional, cell-based.
Test [1] can be described thus: Inhibition of killing activity of CD8+ specific mouse CTL-OE4 cells. The class given is functional, cell-based.

As a reminder, the IC50 is the concentration that inhibits the measured activity by half. A low value points to greater potency. Take `C=C1CC[C@@]23O[C@]2(C)CC[C@H]2C(=C)C(=O)O[C@@H]2[C@@H]13`: the IC50 (with A549; in test [1]) was 7 µM in each case.

Consider `C=C1CC[C@H]2C(C)=CCC3=C(C)C(=O)O[C@@H]3[C@@H]12`, for which the IC50 with A549 was 142 µM; in test [1] it was over 100 µM.

For `C=C1CC[C@@]23O[C@]2(C)CC[C@@H]2[C@H](OC(=O)[C@H]2C)[C@@H]13`, the figures for the half-maximal inhibitory concentration (IC50) (with A549; in test [1]) were 253 µM and over 1000 µM, respectively.

Take `C=C1CC[C@]23O[C@@]2(C)CCC2=C(C)C(=O)O[C@@H]2[C@@H]13`: the values for the half-maximal inhibitory concentration (IC50) (in the test with A549; in test [1]) were 136 µM and over 1000 µM, respectively.

As to `C=C1CC[C@@H]2[C@H]1[C@H]1OC(=O)C(=C)[C@@H]1C[C@H]1O[C@@]21C`, the IC50 in the test on A549 was determined as 6 µM; in test [1], 8 µM.

In test [1], `C=C1CC[C@@H]2[C@H](OC(=O)[C@H]2C)[C@H]2C(C)=CC[C@@H]12` returned a 50% inhibitory concentration (IC50) of over 100 µM.

As to `C=C1CC[C@]23O[C@@]2(C)CC[C@H]2C(=C)C(=O)O[C@@H]2[C@@H]13`, the IC50 in the test with A549 is 10 µM; in test [1], 7 µM.

On to `C=C1CC[C@H]2C(=C)CCC3=C(C)C(=O)O[C@@H]3[C@@H]12`, for which the concentration for half-maximal inhibition (IC50) with A549 turned out to be 442 µM; in test [1] it was 50 µM.

`C=C1CC[C@]23O[C@@]2(C)CC[C@@H]2[C@H](OC(=O)[C@H]2C)[C@@H]13`: the IC50 in the test with A549 came out at 504 µM; in test [1] it was 597 µM.

For `C=C1CC[C@@H]2[C@H]1[C@H]1OC(=O)[C@@H](C)[C@@H]1C[C@H]1O[C@@]21C`, the 50% inhibitory concentration (IC50) came out at 117 µM in the test with A549 and 422 µM in test [1].

As to `C=C1CCC2=C(C)CC[C@H]3C(=C)C(=O)O[C@@H]3[C@@H]12`, the 50% inhibitory concentration (IC50) in the test on A549 came to 8 µM; in test [1], 15 µM.

For `C=C1CC[C@H]2C(=C)CC[C@H]3C(=C)C(=O)O[C@@H]3[C@@H]12` [DEHYDROCOSTUSLACTONE], the IC50 turned out to be 10 µM in the test with A549 and 14 µM in test [1].

As to `C=C1CC[C@H]2C(C)=CC[C@H]3C(=C)C(=O)O[C@@H]3[C@@H]12` [EREMANTHIN], the half-inhibitory concentration (IC50) with A549 is 46 µM; in test [1] it was 11 µM.

On to `C=C1C(=O)O[C@@H]2[C@H]3C(C)=CC[C@H]3C(=C)CC[C@@H]12` [ISODEHYDROCOSTUS LACTONE], for which, in test [1], the half-maximal inhibitory concentration (IC50) is 16 µM.

Consider `C=C1CC[C@H]2C(=C)CC[C@@H]3[C@H](OC(=O)[C@H]3C)[C@@H]12` [MOKKO LACTONE], for which the 50% inhibitory concentration (IC50) in the test with A549 is 251 µM; in test [1], over 1000 µM.
